Reference: patent US11607458B2 (Georgia State University Research Foundation, Inc, priority 2017, dated 2023)

Columns and labels:
[1] = HPLC studies of reaction kinetics of tetrazine prodrugs with cyclooctyne alkynes (Kobs, second-order rate constant k2); assay type: physicochemical; settings: for Kobs: prodrug 25 μM; for k2 at 37° C. (second order rate constant) / k2 at r.t (second order rate constant): PBS containing 10% DMSO, n = 3
Experimental: Stock solution preparation. Each of the tetrazine prodrugs (compounds 1b, 1c, and 1d) was dissolved in DMSO to afford a 500-μM stock solution. Each of the alkynes (compounds 2a, 2b, 2c, and 2d) was dissolved in DMSO to afford a 50-mM stock solution. Doxorubicin (Dox) and dansylamino compound (DA) 1.1b were each dissolved in DMSO to afford 1-mM stock solutions.
(§1) HPLC method A.: mobile phase A (10 mM NaH2PO4 in water, pH=5.0) and mobile phase B (ACN), flow rate: 1 mL/min, running time: 30 min, the gradient elution method: 25% B from 0 to 6 min, 25% to 50% B from 6 to 8 min, 50% B from 8 to 15 min, 50% to 99% B from 15 to 20 min, 99% B from 20 to 25 min, 99% to 25% B from 25 to 30 min. Detection wavelength: 256 nm. Column: Waters C18 3.5 μM, 4.6×100 mm. Injection volume: 20 μL.
as §1, with “method B:” for “method A.:”, “method: 30%” for “method: 25%”, “min, 30%” for “min, 25%”, “25 min.” for “25 min,”, “to 30%” for “to 25%”, “Detection wavelength 1: 256, detection wavelength 2: 337” for “Detection wavelength: 256”
(§2) General procedures HPLC studies of reaction kinetics. To three 20-ml vials with 9 mL PBS were added a solution of tetrazine prodrug (500 μL, 500 μM). 350 μL, 300 μL and 250 μL DMSO were added to vial respectively, and then 150 μL, 200 μL and 250 μL of the alkyne solution (50 mM in DMSO) were added to the vials to afford final concentrations of alkyne 0.75 mM, 1 mM and 1.25 mM in PBS (10% DMSO, 25 μM prodrug) respectively. The reaction was stirred at r.t or 37° C. respectively. Every 30 min about 500 μL reaction mixtures were taken out and 20 μL of them were injected into the HPLC by the autosampler; the rest of them were poured back to the reaction mixture. (Note: In the cases of prodrugs 1d or 1b reacting with alkyne 2d at 37° C., the final concentrations of 2d in the kinetic studies were 250 μM, 300 μM and 350 μM).
Determination of second-order rate constants. The reaction rate constant, kobs, was calculated for each concentration of the alkyne by fitting the prodrug areas versus time using eq. 1: Y=A exp(−kobst) eq. 1 where Y is the prodrug area, and t is time. The pseudo-first-order rate constant, kobs, was then plotted against the concentration of alkyne to yield the second-order rate constant using eq 2: kobs=k2[Alkyne] eq. 2 where k2 is the second-order rate constant.

[2] = Release of the parent drug (Dox / dansyl amine) from prodrugs treated with alkynes, monitored by HPLC; assay type: physicochemical; settings: r.t, PBS 10% DMSO
Experimental: (§3) Standard curve of Dox concentration measurement. To four HPLC vials containing 0.9 mL PBS (size: 1.5 mL) were added 25, 15, 20, 10 μL Dox stock solution (1 mM) respectively. Then defined amounts DMSO (975, 985, 980, and 990 μL) were added to each vial to afford final concentration of four vials were 25, 15, 20, 10 μM in PBS (10% DMSO), respectively. The samples were analyzed with HPLC method A. Dox retention time: 4.0 min.
as §3, with “for DA” for “of Dox”, “B. DA” for “A. Dox”, “5.8” for “4.0”
as §2
Results. The results from the reaction kinetics studies of the tetrazine-cyclooctyne system are summarized below in Table 4. Prodrugs 1d or 1b (25 μM) were treated with alkynes 2d, 2c ,2a, or 2b at different concentrations at room temperature (r.t.) or 37° C., respectively. The prodrug consumption and release of the parent drug were monitored by HPLC (Table 4).

With `C#CCOc1ccc(-c2nnc(C(=O)NC3CC(OC4CC(O)(C(=O)CO)Cc5c(O)c6c(c(O)c54)C(=O)c4c(OC)cccc4C6=O)OC(C)C3O)nn2)cc1` (stereo not drawn) [1b] the Kobs ([1]; 37° C., alkyne 2a 0.75 mM, Expt. 1) was 0.418 h⁻¹, the Kobs ([1]; 37° C., alkyne 2a 0.75 mM, Expt. 2) was 0.438 h⁻¹ and the Kobs ([1]; 37° C., alkyne 2a 0.75 mM, Expt. 3) was 0.495 h⁻¹. It also gave a Kobs ([1]; 37° C., alkyne 2a 1.00 mM, Expt. 1) of 0.546 h⁻¹, a Kobs ([1]; 37° C., alkyne 2a 1.00 mM, Expt. 2) of 0.598 h⁻¹ and a Kobs ([1]; 37° C., alkyne 2a 1.00 mM, Expt. 3) of 0.678 h⁻¹. For the same molecule, the Kobs ([1]; 37° C., alkyne 2a 1.25 mM, Expt. 1) was 0.673 h⁻¹, the Kobs ([1]; 37° C., alkyne 2a 1.25 mM, Expt. 2) was 0.739 h⁻¹ and the Kobs ([1]; 37° C., alkyne 2a 1.25 mM, Expt. 3) was 0.857 h⁻¹. The Kobs ([1]; 37° C., alkyne 2b 0.75 mM, Expt. 1) was 0.486 h⁻¹, the Kobs ([1]; 37° C., alkyne 2b 0.75 mM, Expt. 2) was 0.503 h⁻¹ and the Kobs ([1]; 37° C., alkyne 2b 0.75 mM, Expt. 3) was 0.533 h⁻¹. It also gave a Kobs ([1]; 37° C., alkyne 2b 1.00 mM, Expt. 1) of 0.635 h⁻¹, a Kobs ([1]; 37° C., alkyne 2b 1.00 mM, Expt. 2) of 0.672 h⁻¹ and a Kobs ([1]; 37° C., alkyne 2b 1.00 mM, Expt. 3) of 0.622 h⁻¹. For the same molecule, the Kobs ([1]; 37° C., alkyne 2b 1.25 mM, Expt. 1) was 0.783 h⁻¹, the Kobs ([1]; 37° C., alkyne 2b 1.25 mM, Expt. 2) was 0.846 h⁻¹ and the Kobs ([1]; 37° C., alkyne 2b 1.25 mM, Expt. 3) was 0.905 h⁻¹. It also gave a Kobs ([1]; 37° C., alkyne 2c 0.75 mM, Expt. 1) of 0.0607 h⁻¹, a Kobs ([1]; 37° C., alkyne 2c 0.75 mM, Expt. 2) of 0.0671 h⁻¹ and a Kobs ([1]; 37° C., alkyne 2c 0.75 mM, Expt. 3) of 0.0696 h⁻¹. The Kobs ([1]; 37° C., alkyne 2c 1.00 mM, Expt. 1) was 0.0798 h⁻¹, the Kobs ([1]; 37° C., alkyne 2c 1.00 mM, Expt. 2) was 0.0895 h⁻¹ and the Kobs ([1]; 37° C., alkyne 2c 1.00 mM, Expt. 3) was 0.0941 h⁻¹. The Kobs ([1]; 37° C., alkyne 2c 1.25 mM, Expt. 1) was 0.0986 h⁻¹, the Kobs ([1]; 37° C., alkyne 2c 1.25 mM, Expt. 2) was 0.112 h⁻¹ and the Kobs ([1]; 37° C., alkyne 2c 1.25 mM, Expt. 3) was 0.119 h⁻¹. The Kobs ([1]; 37° C., alkyne 2d 0.25 mM, Expt. 1) was 1.90 h⁻¹, the Kobs ([1]; 37° C., alkyne 2d 0.25 mM, Expt. 2) was 1.81 h⁻¹ and the Kobs ([1]; 37° C., alkyne 2d 0.25 mM, Expt. 3) was 1.97 h⁻¹. The Kobs ([1]; 37° C., alkyne 2d 0.3 mM, Expt. 1) was 2.28 h⁻¹, the Kobs ([1]; 37° C., alkyne 2d 0.3 mM, Expt. 2) was 2.15 h⁻¹ and the Kobs ([1]; 37° C., alkyne 2d 0.3 mM, Expt. 3) was 2.38 h⁻¹. For the same molecule, the Kobs ([1]; 37° C., alkyne 2d 0.35 mM, Expt. 1) was 2.65 h⁻¹, the Kobs ([1]; 37° C., alkyne 2d 0.35 mM, Expt. 2) was 2.48 h⁻¹ and the Kobs ([1]; 37° C., alkyne 2d 0.35 mM, Expt. 3) was 2.78 h⁻¹. The “k2 at 37° C. (second order rate constant)” value ([1]; alkyne 2a, 37° C.) was 0.17 M⁻¹ s⁻¹, the “k2 at 37° C. (second order rate constant)” value ([1]; alkyne 2a, 37° C., listed as lb) was 0.17 ± 0.05 M⁻¹ s⁻¹ and the “k2 at r.t (second order rate constant)” value ([1]; alkyne 2a, r.t) was 0.061 ± 0.013 M⁻¹ s⁻¹. For the same molecule, the “k2 at 37° C. (second order rate constant)” value ([1]; alkyne 2b, 37° C.) was 0.19 M⁻¹ s⁻¹, the “k2 at 37° C. (second order rate constant)” value ([1]; alkyne 2b, 37° C., listed as lb) was 0.19 ± 0.04 M⁻¹ s⁻¹ and the “k2 at r.t (second order rate constant)” value ([1]; alkyne 2b, r.t) was 0.065 ± 0.013 M⁻¹ s⁻¹. For the same molecule, the “k2 at 37° C. (second order rate constant)” value ([1]; alkyne 2c, 37° C.) was 0.025 ± 0.006 M⁻¹ s⁻¹, the “k2 at r.t (second order rate constant)” value ([1]; alkyne 2c, r.t) was 0.0078 ± 0.0009 M⁻¹ s⁻¹ and the “k2 at 37° C. (second order rate constant)” value ([1]; alkyne 2d, 37° C.) was 2.1 M⁻¹ s⁻¹. The “k2 at 37° C. (second order rate constant)” value ([1]; alkyne 2d, 37° C., listed as lb) was 2.1 ± 0.4 M⁻¹ s⁻¹, the “k2 at r.t (second order rate constant)” value ([1]; alkyne 2d, r.t) was 0.36 ± 0.07 M⁻¹ s⁻¹ and the Kobs ([1]; r.t, alkyne 2a 0.75 mM, Expt. 1) was 0.183 h⁻¹. The Kobs ([1]; r.t, alkyne 2a 0.75 mM, Expt. 2) was 0.191 h⁻¹, the Kobs ([1]; r.t, alkyne 2a 0.75 mM, Expt. 3) was 0.185 h⁻¹ and the Kobs ([1]; r.t, alkyne 2a 1.00 mM, Expt. 1) was 0.235 h⁻¹. The Kobs ([1]; r.t, alkyne 2a 1.00 mM, Expt. 2) was 0.246 h⁻¹, the Kobs ([1]; r.t, alkyne 2a 1.00 mM, Expt. 3) was 0.247 h⁻¹ and the Kobs ([1]; r.t, alkyne 2a 1.25 mM, Expt. 1) was 0.289 h⁻¹. For the same molecule, the Kobs ([1]; r.t, alkyne 2a 1.25 mM, Expt. 2) was 0.295 h⁻¹, the Kobs ([1]; r.t, alkyne 2a 1.25 mM, Expt. 3) was 0.307 h⁻¹ and the Kobs ([1]; r.t, alkyne 2b 0.75 mM, Expt. 1) was 0.201 h⁻¹. The Kobs ([1]; r.t, alkyne 2b 0.75 mM, Expt. 2) was 0.195 h⁻¹, the Kobs ([1]; r.t, alkyne 2b 0.75 mM, Expt. 3) was 0.197 h⁻¹ and the Kobs ([1]; r.t, alkyne 2b 1.00 mM, Expt. 1) was 0.261 h⁻¹. The Kobs ([1]; r.t, alkyne 2b 1.00 mM, Expt. 2) was 0.257 h⁻¹, the Kobs ([1]; r.t, alkyne 2b 1.00 mM, Expt. 3) was 0.261 h⁻¹ and the Kobs ([1]; r.t, alkyne 2b 1.25 mM, Expt. 1) was 0.309 h⁻¹. For the same molecule, the Kobs ([1]; r.t, alkyne 2b 1.25 mM, Expt. 2) was 0.318 h⁻¹, the Kobs ([1]; r.t, alkyne 2b 1.25 mM, Expt. 3) was 0.326 h⁻¹ and the Kobs ([1]; r.t, alkyne 2c 0.75 mM, Expt. 1) was 0.0202 h⁻¹. The Kobs ([1]; r.t, alkyne 2c 0.75 mM, Expt. 2) was 0.0209 h⁻¹, the Kobs ([1]; r.t, alkyne 2c 0.75 mM, Expt. 3) was 0.0207 h⁻¹ and the Kobs ([1]; r.t, alkyne 2c 1.00 mM, Expt. 1) was 0.0282 h⁻¹. For the same molecule, the Kobs ([1]; r.t, alkyne 2c 1.00 mM, Expt. 2) was 0.0262 h⁻¹, the Kobs ([1]; r.t, alkyne 2c 1.00 mM, Expt. 3) was 0.0278 h⁻¹ and the Kobs ([1]; r.t, alkyne 2c 1.25 mM, Expt. 1) was 0.0353 h⁻¹. It also gave a Kobs ([1]; r.t, alkyne 2c 1.25 mM, Expt. 2) of 0.0341 h⁻¹, a Kobs ([1]; r.t, alkyne 2c 1.25 mM, Expt. 3) of 0.0344 h⁻¹ and a Kobs ([1]; r.t, alkyne 2d 0.75 mM, Expt. 1) of 0.894 h⁻¹. The Kobs ([1]; r.t, alkyne 2d 0.75 mM, Expt. 2) was 0.976 h⁻¹, the Kobs ([1]; r.t, alkyne 2d 0.75 mM, Expt. 3) was 0.993 h⁻¹ and the Kobs ([1]; r.t, alkyne 2d 1.00 mM, Expt. 1) was 1.18 h⁻¹. It also gave a Kobs ([1]; r.t, alkyne 2d 1.00 mM, Expt. 2) of 1.30 h⁻¹, a Kobs ([1]; r.t, alkyne 2d 1.00 mM, Expt. 3) of 1.34 h⁻¹ and a Kobs ([1]; r.t, alkyne 2d 1.25 mM, Expt. 1) of 1.47 h⁻¹. For the same molecule, the Kobs ([1]; r.t, alkyne 2d 1.25 mM, Expt. 2) was 1.62 h⁻¹, the Kobs ([1]; r.t, alkyne 2d 1.25 mM, Expt. 3) was 1.69 h⁻¹ and the “Time of the Dox peak (in brackets in the Dox Peak % cell)” value ([2]; alkyne 2a) was 19 h. For the same molecule, the “Time of the Dox peak (in brackets in the Dox Peak % cell)” value ([2]; alkyne 2b) was 18 h, the “Time of the Dox peak (in brackets in the Dox Peak % cell)” value ([2]; alkyne 2c) was 21 h and the “Time of the Dox peak (in brackets in the Dox Peak % cell)” value ([2]; alkyne 2d) was 48 h.
